{
  "source": "patent US20260274867A1",
  "about": "“PYRIDO[4,3-D]PYRIMIDINE DERIVATIVES AS MUTANT KRAS G12C INHIBITORS FOR THE TREATMENT OF CANCER” (Frontier Medicines Corporation, priority 2023, published 2026)",
  "note": "pIC50: −log10 of the molar value.",
  "data": [
    {"molecular_target": "T1, KRAS G12C (GMPPNP-loaded, Cys-light, amino acids 1-169) and cRAF Ras-binding domain interaction (Homo sapiens, UniProt P01116, C118S/C51S/C80L/G12C)", "T1 construct": "truncated version comprising amino acids 1-169", "T1 sequence (P01116 1-169 isoform P01116-2 G12C/C51S/C80L/C118S)": "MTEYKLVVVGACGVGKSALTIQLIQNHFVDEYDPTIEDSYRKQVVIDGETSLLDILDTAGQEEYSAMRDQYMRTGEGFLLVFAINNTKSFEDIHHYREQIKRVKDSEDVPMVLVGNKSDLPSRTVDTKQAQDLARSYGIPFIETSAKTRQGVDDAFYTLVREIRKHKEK", "assay": "Inhibition of KRAS G12C and cRAF binding (AlphaScreen)", "conditions": "KRAS G12C preloaded with GMPPNP, 2 hours compound incubation, room temperature", "procedure": "The AlphaScreen technology was used to determine IC50s for compound inhibition of KRAS G12C (present as the Cys-light (C51S, C80L and C118S), truncated version comprising amino acids 1-169) and cRAF interaction. Compounds were diluted in 100% DMSO and each compound concentration was spotted at 200 nl/well onto low volume, white 384 well plates. The KRAS G12C contained a biotin-AviTag and the cRaf, as Ras-binding domain (amino acids 50-131, RBD), was GST-tagged. KRAS G12C was preloaded with the GTP analogue Guanosine 5′-[…] (GMPPNP). The KRAS G12C was diluted in 25 mM Hepes, pH 7.4, 150 mM NaCl, 5 mM MgCl2, 0.01% TritonX-100 and 10 μM GMPPNP and added at 10 ul/well to compound-spotted plates resulting in a DMSO concentration of 2%. Plates were incubated for 2 hours. A mixture of RBD and the AlphaScreen streptavidin donor and glutathione acceptor beads diluted in 25 mM Hepes, pH 7.4, 150 mM NaCl, 5 mM MgCl2, 0.01% TritonX-100 and 2% DMSO was then added at 10 ul/well and incubated for 60-90 minutes before the samples were read for emission at 570 nm after excitation of the donor beads at 680 nm. All incubations were performed at room temperature. The final top compound concentration was 50 μM with 1:3 titrations for 10-point dose response curves. Final assay conditions were 0.5 nM KRAS G12C, 0.75 nM RBD and 5 μg/ml each of AlphaScreen donor and acceptor beads. IC50s were determined using nonlinear regression fit of [inhibitor] vs. response (4 parameters).\nA counter assay was also set up to rule out inhibitors of the AlphaScreen technology itself. Compound plates were incubated for 2 hours as above with buffer only. The AlphaScreen beads were added as above except biotin-AviTag-GST was substituted for the RBD. Samples were read and analyzed as above.", "values": [
      {"smiles": "CCc1c(F)ccc2cccc(-c3ncc4c(N5CCN(C(=O)/C(F)=C/c6cc(C)nc(C)n6)[C@@H](CC#N)C5)nc(OC[C@@]56CCCN5C[C@H](F)C6)nc4c3F)c12", "note": "[Compound 15]", "pIC50": "> 8.00"},
      {"smiles": "CCc1c(F)ccc2cccc(-c3ncc4c(N5CCN(C(=O)/C(F)=C/c6ccnc(C)n6)[C@@H](CC#N)C5)nc(OC[C@@]56CCCN5C[C@H](F)C6)nc4c3F)c12", "note": "[Compound 9, 2-((S)-4-(7-(8-ethyl-7-fluoronaphthalen-1-yl)-8-fluoro-2-(((2R,7aS)-2-fluorotetrahydro-1H-pyrrolizin-7a(5H)-yl)methoxy)pyrido[4,3-d]pyrimidin-4-yl)-1-((Z)-2-fluoro-3-(2-methylpyrimidin-4-yl)acryloyl)piperazin-2-yl)acetonitrile]", "pIC50": "> 8.00"},
      {"smiles": "Cc1nccc(/C=C(\\F)C(=O)N2CCN(c3nc(OC[C@@]45CCCN4C[C@H](F)C5)nc4c(F)c(-c5cccc6ccc(F)c(F)c56)ncc34)C[C@@H]2CC#N)n1", "note": "[Compound 11, 2-((S)-4-(7-(7,8-difluoronaphthalen-1-yl)-8-fluoro-2-(((2R,7aS)-2-fluorotetrahydro-1H-pyrrolizin-7a(5H)-yl)methoxy)pyrido[4,3-d]pyrimidin-4-yl)-1-((Z)-2-fluoro-3-(2-methylpyrimidin-4-yl)acryloyl)piperazin-2-yl)acetonitrile]", "pIC50": "> 8.00"},
      {"smiles": "CN1CC[C@@H]1/C=C(/F)C(=O)N1CC[C@@H](N(C)c2nc(OC[C@@]34CCCN3C[C@H](F)C4)nc3c(F)c(-c4cccc5ccc(F)c(F)c45)ncc23)C1", "note": "[Compound 14]", "pIC50": "7.00 to 8.00"},
      {"smiles": "COc1nc(N2CCN(C(=O)/C(F)=C/c3cc(C)nc(C)n3)[C@@H](CC#N)C2)c2cnc(-c3cccc4ccc(F)c(Cl)c34)c(F)c2n1", "note": "[Compound 54, (S,Z)-2-(4-(7-(8-chloro-7-fluoronaphthalen-1-yl)-8-fluoro-2-methoxypyrido[4,3-d]pyrimidin-4-yl)-1-(3-(2,6-dimethylpyrimidin-4-yl)-2-fluoroacryloyl)piperazin-2-yl)acetonitrile]", "pIC50": "≤ 6.30"},
      {"smiles": "CN1CCC1/C=C(/F)C(=O)N1CCN(c2nc(OC[C@@]34CCCN3C[C@H](F)C4)nc3c(F)c(-c4cccc5ccc(F)c(F)c45)ncc23)C[C@@H]1CC#N", "note": "(some centres unmarked) [Compound 12]", "pIC50": "≤ 6.30"},
      {"smiles": "COC(=O)/C=C(\\F)C(=O)N1CCC(N(C)c2nc(OCC34CCCN3CCC4)nc3c2CCN(c2cccc4cccc(Cl)c24)C3)C1", "note": "(centres unmarked) [Compound 1]", "pIC50": "7.00 to 8.00"},
      {"smiles": "COc1nc(N(C)[C@@H]2CCN(C(=O)/C(F)=C/c3cc(C)nc(C)n3)C2)c2cnc(-c3cc(O)cc(Cl)c3C3CC3)c(F)c2n1", "note": "[Compound 56, (R,Z)-1-(3-((7-(3-chloro-2-cyclopropyl-5-hydroxyphenyl)-8-fluoro-2-methoxypyrido[4,3-d]pyrimidin-4-yl)(methyl)amino)pyrrolidin-1-yl)-3-(2,6-dimethylpyrimidin-4-yl)-2-fluoroprop-2-en-1-one]", "pIC50": "6.30 to 7.00"},
      {"smiles": "Cc1nccc(/C=C(\\F)C(=O)N2CCN(c3nc(OC[C@@]45CCCN4C[C@H](F)C5)nc4c(F)c(-c5cccc6cccc(Cl)c56)ncc34)C[C@@H]2CC#N)n1", "note": "[Compound 18]", "pIC50": "> 8.00"},
      {"smiles": "N#CC[C@H]1CN(c2nc(OC[C@@]34CCCN3C[C@H](F)C4)nc3c(F)c(-c4cccc5cccc(Cl)c45)ncc23)CCN1C(=O)/C(F)=C/CN1[C@@H]2CC[C@H]1COC2", "note": "[Compound 21]", "pIC50": "≤ 6.30"},
      {"smiles": "C#Cc1c(F)ccc2cccc(-c3ncc4c(N5CCN(C(=O)/C(F)=C/c6cc(C)nc(C)n6)[C@@H](CC#N)C5)nc(OC)nc4c3F)c12", "note": "[Compound 49, (S,Z)-2-(1-(3-(2,6-dimethylpyrimidin-4-yl)-2-fluoroacryloyl)-4-(7-(8-ethynyl-7-fluoronaphthalen-1-yl)-8-fluoro-2-methoxypyrido[4,3-d]pyrimidin-4-yl)piperazin-2-yl)acetonitrile]", "pIC50": "6.30 to 7.00"},
      {"smiles": "CN1CCC1/C=C(/F)C(=O)N1CCN(c2nc(OC[C@@]34CCCN3C[C@H](F)C4)nc3c(F)c(-c4cccc5ccc(F)c(Cl)c45)ncc23)C[C@@H]1CC#N", "note": "(some centres unmarked) [Compound 17]", "pIC50": "≤ 6.30"},
      {"smiles": "Cc1nccc(/C=C(\\F)C(=O)N2CC[C@H](O)[C@@H](N(C)c3nc(OC[C@@]45CCCN4C[C@H](F)C5)nc4c(F)c(-c5cccc6cccc(Cl)c56)ncc34)C2)n1", "note": "[Compound 36]", "pIC50": "6.30 to 7.00"},
      {"smiles": "Cc1nccc(/C=C(\\F)C(=O)N2CCN(c3nc(OC[C@@]45CCCN4C[C@H](F)C5)nc4c(F)c(-c5cccc6ccc(F)c(C)c56)ncc34)C[C@@H]2CC#N)n1", "note": "[Compound 22]", "pIC50": "> 8.00"},
      {"smiles": "Cc1cc(/C=C(\\F)C(=O)N2CC[C@@H](N(C)c3nc(OC[C@@]45CCCN4C[C@H](F)C5)nc4c(F)c(-c5cccc(Cl)c5C5CC5)ncc34)C2)nc(C)n1", "note": "[Compound 46, (Z)-1-((R)-3-((7-(3-chloro-2-cyclopropylphenyl)-8-fluoro-2-(((2R,7aS)-2-fluorotetrahydro-1H-pyrrolizin-7a(5H)-yl)methoxy)pyrido[4,3-d]pyrimidin-4-yl)(methyl)amino)pyrrolidin-1-yl)-3-(2,6-dimethylpyrimidin-4-yl)-2-fluoroprop-2-en-1-one]", "pIC50": "> 8.00"},
      {"smiles": "Cc1nccc(/C=C(\\F)C(=O)N2CC[C@@H](N(C)c3nc(OC[C@@]45CCCN4C[C@H](F)C5)nc4c(F)c(-c5cccc6ccc(F)c(F)c56)ncc34)C2)n1", "note": "[Compound 38]", "pIC50": "> 8.00"},
      {"smiles": "Cc1nccc(/C=C(\\F)C(=O)N2CCN(c3nc(OCC45CCCN4CCC5)nc4c(F)c(-c5cccc6cccc(Cl)c56)ncc34)C[C@@H]2CC#N)n1", "note": "[Compound 2]", "pIC50": "> 8.00"},
      {"smiles": "Cc1cc(/C=C(\\F)C(=O)N2CCN(c3nc(OC[C@@]45CCCN4C[C@H](F)C5)nc4c(F)c(-c5cccc6ccc(F)c(F)c56)ncc34)C[C@@H]2CC#N)nc(C)n1", "note": "[Compound 27]", "pIC50": "> 8.00"},
      {"smiles": "Cc1nccc(/C=C(\\F)C(=O)N2CC[C@@H](N(C)c3nc(OC[C@@]45CCCN4C[C@H](F)C5)nc4c(F)c(-c5cccc(Cl)c5C(F)(F)F)ncc34)C2)n1", "note": "[Compound 43]", "pIC50": "> 8.00"},
      {"smiles": "N#CC[C@H]1CN(c2nc(OC[C@@]34CCCN3C[C@H](F)C4)nc3c(F)c(-c4cccc5ccc(F)c(Cl)c45)ncc23)CCN1C(=O)/C(F)=C\\c1ccnc(C2CC2)n1", "note": "[Compound 7]", "pIC50": "7.00 to 8.00"},
      {"smiles": "Cc1cc(/C=C(\\F)C(=O)N2CCN(c3nc(C)nc4c(F)c(-c5cc(O)cc(Cl)c5C5CC5)ncc34)C[C@@H]2CC#N)nc(C)n1", "note": "[Compound 57]", "pIC50": "> 8.00"},
      {"smiles": "Cc1nccc(/C=C(\\F)C(=O)N2CCN(c3nc(OC[C@@]45CCCN4C[C@H](F)C5)nc4c(F)c(-c5cccc6ccc(F)c(Cl)c56)ncc34)C[C@@H]2CC#N)n1", "note": "[Compound 5, 2-((S)-4-(7-(8-chloro-7-fluoronaphthalen-1-yl)-8-fluoro-2-(((2R,7aS)-2-fluorotetrahydro-1H-pyrrolizin-7a(5H)-yl)methoxy)pyrido[4,3-d]pyrimidin-4-yl)-1-((Z)-2-fluoro-3-(2-methylpyrimidin-4-yl)acryloyl)piperazin-2-yl)acetonitrile]", "pIC50": "> 8.00"},
      {"smiles": "C#Cc1c(F)ccc2cccc(-c3ncc4c(N5CCN(C(=O)/C(F)=C/c6ccnc(C)n6)[C@@H](CC#N)C5)nc(OC[C@@]56CCCN5C[C@H](F)C6)nc4c3F)c12", "note": "[Compound 30]", "pIC50": "> 8.00"},
      {"smiles": "Cc1cc(/C=C(\\F)C(=O)N2CC[C@@H](N(C)c3nc(OC[C@@H]4CCCN4C)nc4c(F)c(-c5cccc(Cl)c5C5CC5)ncc34)C2)nc(C)n1", "note": "[Compound 50]", "pIC50": "7.00 to 8.00"},
      {"smiles": "CCc1c(F)ccc2cccc(-c3ncc4c(N5CCN(C(=O)/C(F)=C\\c6ccnc(C7CC7)n6)[C@@H](CC#N)C5)nc(OC[C@@]56CCCN5C[C@H](F)C6)nc4c3F)c12", "note": "[Compound 10]", "pIC50": "6.30 to 7.00"},
      {"smiles": "N#CC[C@H]1CN(c2nc(OC[C@@]34CCCN3C[C@H](F)C4)nc3c(F)c(-c4cccc5ccc(F)c(Cl)c45)ncc23)CCN1C(=O)/C(F)=C/CN1[C@@H]2CC[C@H]1COC2", "note": "[Compound 31]", "pIC50": "≤ 6.30"}
    ]}
  ]
}
